“And” between values parts separate entries of the source, which are not always exact repeats. Equal values may be shown once. Read-outs that look alike come from different tables or passages of the source. Blank lines part the entries; values can stand above or below the compound they belong to.
How the values were obtained:
[1] = Solubility in xylene (compatibility); format: physicochemical
[2] = UV absorption in toluene (λmax, molar absorptivity); format: physicochemical
Excerpt: The high molar absorptivity of 3,3′-bis-(2H-benzotriazol-2-yl)-5,5′-di-tert-octyl-1,1′-biphenyl-2,2′-diol, ε310=25,600 (toluene) and ε353=28,300 (toluene) are indicative of high ultraviolet absorption efficiency of the benzotriazole stabilizers of the present invention.
The bis-benzotriazoles of the invention absorb UV light at longer wavelengths than their non-dimeric or alkylene bridged dimeric counterparts. For example, the dimeric 3,3′-bis-(2H-benzotriazol-2-yl)-5,5′-di-tert-octyl-1,1′-biphenyl-2,2′-diol of the present invention absorbs at λmax(toluene)=353 nm. In contrast, the monomeric 2-(2H-benzotriazol-2-yl)-4-tert-octyl-phenol absorbs at a much lower wavelength, at λmax(toluene)=346 nm. Furthermore, the methylene bridged 2,2′-methylenedi{6-(2-benzotriazolyl)-4-tert-octyl-phenol} has an absorption at λmax(toluene)=350 nm, also substantially shorter than that of the bis-benzotriazoles of the present invention.
PRODUCT A: 3,3′-bis-(2H-benzotriazol-2-yl)-5,5′-di-tert-octyl-1,1′-biphenyl-2,2′-diol (COMPOUND 1) (0.033 g), characterized by ^1H nuclear magnetic resonance spectroscopy (NMR), ultraviolet and mass spectroscopy; λmax(toluene): 310 and 353 nm; ε310=25,600; ε353=28,300; high resolution electron impact mass spectroscopy (HREI/MS): m/e=Found: 644.3815; Calculated: 644.3839; and
PRODUCT B: 3-(2H-Benzotriazol-2-yl)-5,5′-di-tert-octyl-1,1′-biphenyl-2,2′-diol (0.144 g), characterized by ^1H nuclear magnetic resonance spectroscopy (NMR), ultraviolet spectroscopy, and mass spectroscopy; λmax(toluene): 332 nm; ε332=15,400; high resolution electron impact mass spectroscopy (HREI/MS): m/e=Found: 527.3498; Calculated: 527.3512.

[3] = Thermal Gravimetric Analysis (TGA), temperature of 10 wt % loss (volatility); format: physicochemical; settings: for TGA T-10%: Temperature at which 10% wt. loss is observed during TGA analysis; for TGAT=10% point: temperature at which 10 wt % loss occurs, TGA experiment
Excerpt: A reliable indication of the volatility of benzotriazole stabilizers is the temperatures at which 10 wt % loss occurs (TGAT=10%).

[4] = Florida weathering (5° south, direct, ASTM G7-89) of acrylic melamine coating; settings: Table 11
Method: COMPOUND 1 was formulated in a clear acrylic melamine coatings which were applied to aluminum panels for accelerated weathering testing as follows. COMPOUND 1 (2% based on total resin solids) was pre-dissolved in xylenes, alone and in combination with Sanduvor® 3058 HALS (0.5% or 1.0% based on total resin solids), and added to the clear acrylic melamine formulation given in Table 6. A formulation containing Tinuvin® 328 (2% based on total resin solids) was also prepared for comparison purposes. Unpolished aluminum panels, measuring 4″×12″, obtained from ACT Laboratories, Inc. (Hillsdale, Mich.) were coated with the clear coat formulation of Table 6. The draw-down technique, using WC-52 Wire-Cators™ (Leneta co., Ho-Ho-Kus, N.J.), was used to apply the clear coats to the panels. Coatings 2 mil thick were obtained. The clear coats were allowed to flash for 10 min. at ambient temperature and cured for 30 min. at 135° C.
The coatings of Example 13 were weathered in Miami, Fla. The testing was performed in accordance with ASTM G7-89 at a tilt angle of […] from the horizontal facing south with specimens mounted unbacked.

Structure (SMILES): CC(C)(c1ccccc1)c1cc(-c2cc(C(C)(C)c3ccccc3)cc(-n3nc4ccccc4n3)c2O)c(O)c(-n2nc3ccccc3n2)c1 [COMPOUND 3, 3,3′-bis-(2H-benzotriazol-2-yl)-5,5′-di-cumyl-1,1′-biphenyl-2,2′-diol]
TGA T-10% [3]: 377 °C

Structure (SMILES): CC(C)(C)CC(C)(C)c1ccc(O)c(-c2cc(C(C)(C)CC(C)(C)C)cc(-n3nc4ccccc4n3)c2O)c1 [PRODUCT B, 3-(2H-Benzotriazol-2-yl)-5,5′-di-tert-octyl-1,1′-biphenyl-2,2′-diol]
λmax(toluene) [2]: 332 nm
molar absorptivity ε332 ([2]; 332 nm): 15,400

Structure (SMILES): CCC(C)(C)c1cc(-n2nc3ccccc3n2)c(O)c(C(C)(C)CC)c1 [Tinuvin ® 328, reference compound]
efficiency in reducing total color change (delta E) relative to the unstabilized coating [4]: comparable efficiency

Structure (SMILES): CC(C)(c1ccccc1)c1cc(-n2nc3ccccc3n2)c(O)c(C(C)(C)c2ccccc2)c1 [Tinuvin ®-234, 2-(2H-Benzotriazol-2yl)-4,6-bis (α,α-dimethylbenzyl) phenol]
TGA T-10% [3]: 312 °C

Further lines, results first:

melting point: 209 to 211 °C
solubility in xylene [1]: 6.0 gram/100 ml
λmax(toluene) [2]: 310 nm and 353 nm
molar absorptivity ε310 ([2]; 310 nm, in M-1 cm-1 (unit assumed)): 25,600
molar absorptivity ε353 ([2]; 353 nm, in M-1 cm-1 (unit assumed)): 28,300
λmax(toluene) ([2]; listed as 3,3′-bis-(2H-benzotriazol-2-yl)-5,5′-di-tert-octyl-1,1′-biphenyl-2,2′-diol): 353 nm
TGA T-10% [3]: 381 °C
TGAT=10% point [3]: 384 °C
efficiency in reducing total color change (delta E) relative to the unstabilized coating [4]: comparable efficiency
Structure (SMILES): CC(C)(C)CC(C)(C)c1cc(-c2cc(C(C)(C)CC(C)(C)C)cc(-n3nc4ccccc4n3)c2O)c(O)c(-n2nc3ccccc3n2)c1 [COMPOUND 1, 3,3′-bis-(2H-benzotriazol-2-yl)-5,5′-di-tert-octyl-1,1′-biphenyl-2,2′-diol]

melting point: 234 °C
Structure (SMILES): CC(C)(C)c1cc(-c2cc(C(C)(C)C)cc(-n3nc4ccccc4n3)c2O)c(O)c(-n2nc3ccccc3n2)c1 [COMPOUND 2, 3,3′-bis-(2H-benzotriazol-2-yl)-5,5′-di-tert-butyl-1,1′-biphenyl-2,2′-diol]

TGA T-10% [3]: 383 °C
Structure (SMILES): Oc1c(-c2cccc(-n3nc4ccccc4n3)c2O)cccc1-n1nc2ccccc2n1 [COMPOUND 5, 3,3′-bis-(2H-benzotriazol-2-yl)-1,1′-biphenyl-2,2′-diol]

TGA T-10% [3]: 380 °C
Structure (SMILES): CC(C)(C)CC(C)(C)c1cc(Cc2cc(C(C)(C)CC(C)(C)C)cc(-n3nc4ccccc4n3)c2O)c(O)c(-n2nc3ccccc3n2)c1 [LA-31 ®, 2,2′-Methylenedi [Bis-2-benzotriazolyl)-4-tert-octylphenol]

solubility in xylene [1]: 2.5 gram/100 ml
λmax(toluene) [2]: 350 nm
TGAT=10% point [3]: 370 °C
Structure (SMILES): CC(C)(C)CC(C)(C)c1cc(Cc2cc(C(C)(C)CC(C)(C)C)cc(-n3nc4ccccc4n3)c2O)c(O)c(-n2nc3ccccc3n2)c1 [MIXXIM BB/100®, 2,2′-methylenedi{6-(2-benzotriazolyl)-4-tert-octyl-phenol}, reference compound]

TGA T-10% [3]: 205 °C
Structure (SMILES): Cc1ccc(O)c(-n2nc3ccccc3n2)c1 [Tinuvin P ™, 2-(2H-benzotriazol-2-yl)-4-methyl-phenol]

λmax(toluene) [2]: 346 nm
TGA T-10% [3]: 245 °C
TGAT=10% point [3]: 247 °C
Structure (SMILES): CC(C)(C)CC(C)(C)c1ccc(O)c(-n2nc3ccccc3n2)c1 [UV-5411, 2-(2H-benzotriazol-2-yl)-4-tert-octyl-phenol]

— US6344505B1, “Mono- and bis-benzotriazolyldihydroxybiaryl UV absorbers” (Cytec Industries Inc., priority 1999, dated 2002)
